Test [1] concerns Mouse melanocytes (Mel-Ab cells). Kind of test: Melanin production inhibiting effect using mouse melanocytes. The class given is cell-based. Particulars: 10 ppm, 3 consecutive days, absorbance at 400 nm. As for the experimental part: Mouse melanocytes (Mel-Ab cells) derived from C57BL/6 mouse (Dooley, T. P. et al, Skin Pharmacol., 7, pp. 188-200) were cultured under the condition of 37° C. and 5% CO2 in DMEM containing 10% FBS, 100 nM 2-O-tetradecanoyphorbol-13-acetate and 1 nM cholera toxin. The cultured Mel-Ab cells were detached with 0.25% trypsin-EDTA and cultured in a 24-well plate, with 10^5 cells/well. From day 2, hydroquinone or the concentrated makgeolli of Example 1 (10 ppm each) was added for 3 consecutive days as test sample. Hydroquinone was used as positive control. Subsequently, after removing the medium and washing with PBS, the cells were suspended in 1 N sodium hydroxide and absorbance was measured at 400 nm. Based on the measurement result, melanin production inhibiting effect was calculated according to Equation 1.
Melanin production inhibiting effect (%)=100−(Absorbance of test sample/Absorbance of control×100) Equation 1

In another test the test system is human skin. Kind of test: Whitening effect for human skin (UVB-induced tanning). The class given is in vivo. Particulars: 1% topical on UVB-tanned upper arm, 10 weeks, 12 healthy men, colorimeter. As for the experimental part: The whitening effect of the concentrated makgeolli of Example 1 for human skin was tested as follows.
12 healthy men were used as test subjects. An opaque tape with a hole of 1.5 cm diameter was attached on the upper arm of the test subject and UVB of about 1.5-2 times the minimal erythemal dose was irradiated to induce tanning.
After the UV radiation, 1% concentrated makgeolli of Example 1 (in 7:3 1,3-butylene glycol:ethanol solvent), 1% hydroquinone or 1% solvent (vehicle, negative control) was applied. […] The skin color was measured every week using the colorimeter CR2002 (Minolta, Japan).
The difference in skin color (ΔL*) at the initiation of application and after the completion of test was calculated according to Equation 2. Whitening effect was determined from the ΔL* of the sample-applied portion and the control portion. A ΔL* value of about 2 can be evaluated as distinct whitening effect and one of about 1.5 can be evaluated as positive whitening effect.
ΔL*=L*after the completion of test−L*at the initiation of application Equation 2

Test [2] can be described thus: Antioxidant effect (DPPH test). The class given is biochemical. The note with it: 100 μM DPPH, 37° C., 30 minutes, absorbance at 540 nm. As for the experimental part: The antioxidant effect was determined as the concentration at which absorbance is decreased to 50% of control (IC50). 100 μM DPPH solution (in ethanol, 190 μL) was mixed with the concentrated makgeolli prepared in Example 1 or control (10 μL each). The resulting mixture was kept at 37° C. for 30 minutes and absorbance was measured at 540 nm. Trolox, which is widely used as synthetic antioxidant, was used as the control.
A general note: Loss of DPPH colour is used to gauge radical scavenging.

For test [3], the system named is Human keratinocyte HaCaT cell line. Kind of test: ROS production inhibiting effect using fluorescent substances (DCFH-DA, UVB). The note with it: light or radiation study, HaCaT cells, UVB 30 mJ/cm^2, DCF fluorescence, read-out: ROS production inhibiting effect (% of control). The class given is cell-based. The method, then:
Human keratinocyte HaCaT cell line was used. The cells were seeded on a 96-well black plate for fluorescence measurement, with 2.0×10^4 cells per well, cultured under the condition of 37° C. and 5% CO2 for 1 day using Dulbecco's modified Eagle's medium (DMEM, FBS 10%) containing penicillin/streptomycin, and then treated with the test sample. The cells were cultured under the condition of 37°C. and 5% CO2 for 1 day using serum (FBS)-free DMEM containing penicillin/streptomycin treated with the test sample as described in Table 2. After culturing for 24 hours, after washing with HEPES-buffered control salt solution (HCSS) to remove the remaining medium and adding 20 μM 2′,7′-dichlorodihydro-fluorescein diacetate (DCFH-DA, Molecular Probes, Inc., 100 μL), the cells were cultured under the condition of 37° C. and 5% CO2 for 20 minutes and then washed with HCSS. Then, after adding HCSS (100 μL) treated with the samples of different concentrations, the fluorescence intensity of the ROS, oxidized dichlorofluorescein (DCF), was measured using a fluorescence plate reader (Ex=485 nm, Em=530 nm). Then, after immediately and 3 hours after irradiation of UVB (30 mJ/cm^2), fluorescence intensity was measured using the fluorescence plate reader (Ex=485 nm, Em=530 nm). Trolox was used as control.

In the case of `Oc1ccc(O)cc1` [Hydroquinone], the “Melanin production inhibiting effect (%)” value in test [1] stood at 41.1%. In the test on human skin, the “Change in skin color (ΔL*)” value is 1.90 ± 0.11.

Turning to `Cc1c(C)c2c(c(C)c1O)CCC(C)(C(=O)O)O2` (stereo not shown) [Trolox], in test [2], the “IC50 (concentration at which absorbance is decreased to 50% of control)” value amounted to 8.64 ppm. Further, in test [3] (1 ppm), the activity at 1 ppm amounted to 76.9%. In addition, the activity at 10 ppm in test [3] (10 ppm) was found to be 74.6%. In test [3] (25 ppm), the activity at 25 ppm worked out at 73.3%. For the same molecule, the activity at 50 ppm in test [3] (50 ppm) stood at 58.5%.

The record behind these values is patent publication US20120134946A1, “COMPOSITION HAVING ANTIOXIDANT AND WHITENING EFFECTS CONTAINING A CONCENTRATE OF KOREAN RICE WINE” (AMOREPACIFIC CORPORATION, priority 2009, published 2012).
